In patent US9580423B2, “Bicyclic heterocycles as FGFR4 inhibitors” (Incyte Corporation, priority 2015, dated 2017):
Read-outs that look alike come from different tables or passages of the source.

How the values were obtained:
[1] = biological target: FGFR4 (Homo sapiens (Human), UniProt P22455); assay: FGFR Enzymatic Assay (FRET peptide phosphorylation), FGFR4; settings: for FGFR1/FGFR4 IC50 ratio / FGFR2/FGFR4 IC50 ratio / FGFR3/FGFR4 IC50 ratio: IC50 ratio showing FGFR4 selectivity
From the text: (§1) The enzymes were purchased from Millipore or Invitrogen.
(§2) GraphPad prism3 was used to analyze the data. The IC50 values were derived by fitting the data to the equation for a sigmoidal dose-response with a variable slope. Y=Bottom+(Top-Bottom)/(1+10^((LogIC50−X)*HillSlope)) where X is the logarithm of concentration and Y is the response.

[2] = biological target: FGFR2 (Homo sapiens (Human), UniProt P21802); assay: FGFR Enzymatic Assay (FRET peptide phosphorylation), FGFR2
FGFR2, sequence (P21802 22-821): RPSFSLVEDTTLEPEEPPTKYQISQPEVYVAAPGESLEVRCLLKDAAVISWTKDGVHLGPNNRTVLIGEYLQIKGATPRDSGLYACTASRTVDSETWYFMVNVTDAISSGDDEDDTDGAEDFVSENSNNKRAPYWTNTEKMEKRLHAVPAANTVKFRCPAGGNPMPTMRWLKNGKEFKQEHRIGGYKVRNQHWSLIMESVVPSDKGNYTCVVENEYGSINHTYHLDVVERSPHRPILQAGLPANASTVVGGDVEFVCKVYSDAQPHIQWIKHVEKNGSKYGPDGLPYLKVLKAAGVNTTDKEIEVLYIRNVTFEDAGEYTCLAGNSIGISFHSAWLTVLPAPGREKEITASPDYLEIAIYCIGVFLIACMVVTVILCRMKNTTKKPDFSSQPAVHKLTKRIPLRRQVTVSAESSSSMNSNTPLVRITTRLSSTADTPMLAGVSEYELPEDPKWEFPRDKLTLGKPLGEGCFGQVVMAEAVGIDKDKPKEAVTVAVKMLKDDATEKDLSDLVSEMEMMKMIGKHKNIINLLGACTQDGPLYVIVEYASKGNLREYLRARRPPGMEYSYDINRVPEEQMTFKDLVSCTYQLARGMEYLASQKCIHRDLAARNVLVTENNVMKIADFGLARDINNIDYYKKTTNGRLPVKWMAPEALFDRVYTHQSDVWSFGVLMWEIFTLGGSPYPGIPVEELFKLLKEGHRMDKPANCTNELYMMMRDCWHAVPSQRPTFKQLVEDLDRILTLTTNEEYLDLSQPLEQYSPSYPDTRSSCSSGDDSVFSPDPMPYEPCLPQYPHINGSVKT
From the text: as §1, §2

[3] = biological target: FGFR1 (Homo sapiens (Human), UniProt P11362); assay: FGFR Enzymatic Assay (FRET peptide phosphorylation), FGFR1; settings: read-out: FGFR1 IC50
FGFR1, sequence (P11362 22-822): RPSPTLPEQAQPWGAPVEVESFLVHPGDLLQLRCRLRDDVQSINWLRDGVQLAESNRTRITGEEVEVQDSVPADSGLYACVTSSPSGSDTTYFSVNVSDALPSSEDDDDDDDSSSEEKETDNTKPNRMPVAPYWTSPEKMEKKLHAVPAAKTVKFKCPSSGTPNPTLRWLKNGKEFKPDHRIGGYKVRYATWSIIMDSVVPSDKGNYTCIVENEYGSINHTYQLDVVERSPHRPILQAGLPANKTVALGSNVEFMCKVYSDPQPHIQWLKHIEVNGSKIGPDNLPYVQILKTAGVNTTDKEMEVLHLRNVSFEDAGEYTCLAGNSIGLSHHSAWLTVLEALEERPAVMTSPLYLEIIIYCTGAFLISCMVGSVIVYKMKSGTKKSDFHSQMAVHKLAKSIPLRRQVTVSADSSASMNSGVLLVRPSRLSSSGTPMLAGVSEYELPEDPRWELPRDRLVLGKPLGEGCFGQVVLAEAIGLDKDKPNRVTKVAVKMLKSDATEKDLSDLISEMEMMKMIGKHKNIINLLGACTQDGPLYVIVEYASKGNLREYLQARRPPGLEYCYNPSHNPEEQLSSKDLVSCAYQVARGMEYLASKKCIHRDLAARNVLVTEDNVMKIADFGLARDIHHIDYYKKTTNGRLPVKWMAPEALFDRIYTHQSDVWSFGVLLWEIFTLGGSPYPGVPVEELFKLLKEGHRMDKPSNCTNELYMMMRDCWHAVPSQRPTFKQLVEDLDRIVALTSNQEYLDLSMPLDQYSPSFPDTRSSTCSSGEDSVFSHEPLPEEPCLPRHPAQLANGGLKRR
From the text: as §1, §2

[4] = biological target: FGFR3 (Homo sapiens (Human), UniProt P22607); assay: FGFR Enzymatic Assay (FRET peptide phosphorylation), FGFR3
FGFR3, sequence (P22607 23-806): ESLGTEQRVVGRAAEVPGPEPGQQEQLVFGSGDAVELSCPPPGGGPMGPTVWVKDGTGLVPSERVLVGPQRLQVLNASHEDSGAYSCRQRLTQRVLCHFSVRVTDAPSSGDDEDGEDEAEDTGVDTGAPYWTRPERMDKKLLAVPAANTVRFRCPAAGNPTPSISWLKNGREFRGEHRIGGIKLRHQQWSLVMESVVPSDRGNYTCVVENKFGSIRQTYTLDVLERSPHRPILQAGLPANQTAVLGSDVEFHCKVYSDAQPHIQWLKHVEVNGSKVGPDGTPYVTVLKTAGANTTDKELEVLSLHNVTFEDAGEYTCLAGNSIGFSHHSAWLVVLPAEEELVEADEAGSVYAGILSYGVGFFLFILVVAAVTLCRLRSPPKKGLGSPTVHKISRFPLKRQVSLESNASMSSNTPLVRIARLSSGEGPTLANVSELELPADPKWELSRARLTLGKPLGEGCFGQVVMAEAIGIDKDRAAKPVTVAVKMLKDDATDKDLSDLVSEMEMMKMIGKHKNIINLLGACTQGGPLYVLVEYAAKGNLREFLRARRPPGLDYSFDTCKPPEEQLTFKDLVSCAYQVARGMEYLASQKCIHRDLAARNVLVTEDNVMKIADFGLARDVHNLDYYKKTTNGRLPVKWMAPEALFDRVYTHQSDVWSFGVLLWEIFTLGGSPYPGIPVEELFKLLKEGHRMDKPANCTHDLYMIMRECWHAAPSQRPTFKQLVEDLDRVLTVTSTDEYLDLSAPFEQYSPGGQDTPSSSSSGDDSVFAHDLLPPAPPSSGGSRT
From the text: as §1, §2

[5] = read-out: FGFR4 IC50, pre-incubated for 4 hours
[6] = read-out: FGFR2 IC50, pre-incubated for 4 hours
[7] = read-out: FGFR3 IC50, pre-incubated for 4 hours
[8] = read-out: FGFR4 IC50, pre-incubated for 5 to 10 minutes
[9] = read-out: FGFR2 IC50, pre-incubated for 5 to 10 minutes
[10] = FGFR3 IC50 (nM), pre-incubated for 5 to 10 minutes
[11] = FGFR3 IC50 (nM), pre-incubated for 4 hours
[12] = pre-incubated for 5 to 10 minutes
[13] = read-out: FGFR3 IC50, pre-incubated for 5 to 10 minutes

FGFR4, sequence (P22455 22-802): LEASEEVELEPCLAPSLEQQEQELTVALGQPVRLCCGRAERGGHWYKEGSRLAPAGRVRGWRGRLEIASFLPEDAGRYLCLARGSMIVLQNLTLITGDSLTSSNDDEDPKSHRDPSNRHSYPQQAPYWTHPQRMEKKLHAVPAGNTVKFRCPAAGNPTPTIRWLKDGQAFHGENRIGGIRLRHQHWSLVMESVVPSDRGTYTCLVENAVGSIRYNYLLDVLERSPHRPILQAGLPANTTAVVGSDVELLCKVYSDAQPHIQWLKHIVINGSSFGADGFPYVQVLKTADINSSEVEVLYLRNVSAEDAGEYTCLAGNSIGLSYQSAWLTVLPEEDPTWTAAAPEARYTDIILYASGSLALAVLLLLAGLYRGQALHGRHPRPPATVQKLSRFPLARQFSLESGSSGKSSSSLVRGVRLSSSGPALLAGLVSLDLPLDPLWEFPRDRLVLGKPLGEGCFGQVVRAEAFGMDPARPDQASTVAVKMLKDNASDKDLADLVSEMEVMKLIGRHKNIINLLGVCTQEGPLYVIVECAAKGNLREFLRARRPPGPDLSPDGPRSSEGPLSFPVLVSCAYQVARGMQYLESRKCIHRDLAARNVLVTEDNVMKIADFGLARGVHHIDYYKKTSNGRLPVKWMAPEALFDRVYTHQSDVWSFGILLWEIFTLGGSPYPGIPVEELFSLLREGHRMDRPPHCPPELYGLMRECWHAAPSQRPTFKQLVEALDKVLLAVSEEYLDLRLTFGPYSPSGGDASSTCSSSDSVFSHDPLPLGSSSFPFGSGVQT

Row | SMILES | FGFR1/FGFR4 IC50 ratio ([1]; pre-incubated for 4 hours) | FGFR2/FGFR4 IC50 ratio ([1]; pre-incubated for 4 hours) | FGFR3/FGFR4 IC50 ratio ([1]; pre-incubated for 4 hours) | IC50 [1, 5] [nM] | IC50 [2, 6] [nM] | IC50 ([3]; pre-incubated for 4 hours) [nM] | IC50 [4, 7] [nM] | IC50 [1, 8] [nM] | IC50 [2] [nM] | IC50 [2, 9] [nM] | IC50 [4, 10] [nM] | IC50 [4, 11] [nM] | IC50 [1] [nM] | FGFR1/FGFR4 IC50 ratio [1, 12] | FGFR2/FGFR4 IC50 ratio [1, 12] | FGFR3/FGFR4 IC50 ratio [1, 12] | IC50 [3, 12] [nM] | IC50 [4, 13] [nM]
1 | C=CC(=O)Nc1cn(CCOC)nc1-c1cc2c(cn1)CN(c1c(F)c(OC)cc(OC)c1F)C(=O)C21CC1 [Example 32, N-(3-(2′-(2,6-difluoro-3,5-dimethoxyphenyl)-3′-oxo-2′,3′-dihydro-1′H-spiro[cyclopropane-1,4′-[2,7]naphthyridine]-6′-yl)-1-(2-methoxyethyl)-1H-pyrazol-4-yl)acrylamide] | >100 | >100 | >100 | < 10 | > 200 | > 200 | > 200 |  |  |  |  |  |  |  |  |  |  | 
2 | C=CC(=O)Nc1cncc(-c2cc3c(cn2)CN(c2c(F)c(OC)cc(OC)c2F)C(=O)C32CC2)c1 [Example 3, N-(5-(2′-(2,6-difluoro-3,5-dimethoxyphenyl)-3′-oxo-2′,3′-dihydro-1′H-spiro[cyclopropane-1,4′-[2,7]naphthyridine]-6′-yl)pyridin-3-yl)acrylamide] |  |  |  | < 10 |  |  |  | < 10 | 30 to 200 | 30 to 200 | 30 to 200 | 30 to 200 |  |  |  |  |  | 
3 | C=CC(=O)Nc1cnn(CCN2CCOCC2)c1-c1cc2c(cn1)CN(c1c(F)c(OC)cc(OC)c1F)C(=O)C21CC1 [Example 19, N-(5-(2′-(2,6-difluoro-3,5-dimethoxyphenyl)-3′-oxo-2′,3′-dihydro-1′H-spiro[cyclopropane-1,4′-[2,7]naphthyridine]-6′-yl)-1-(2-morpholinoethyl)-1H-pyrazol-4-yl)acrylamide] | >100 | >100 | >100 |  | > 200 | > 200 | > 200 |  |  |  |  |  | 10 to 30 |  |  |  |  | 
4 | C=CC(=O)Nc1cn(CC(=O)N(C)C)nc1-c1cc2c(cn1)CN(c1c(F)c(OC)cc(OC)c1F)C(=O)C21CC1 [Example 36, N-(3-(2′-(2,6-difluoro-3,5-dimethoxyphenyl)-3′-oxo-2′,3′-dihydro-1′H-spiro[cyclopropane-1,4′-[2,7]naphthyridine]-6′-yl)-1-(2-(dimethylamino)-2-oxoethyl)-1H-pyrazol-4-yl)acrylamide] | >100 | >100 | >100 | < 10 | > 200 | > 200 | > 200 |  |  |  |  |  |  |  |  |  |  | 
5 | C=CC(=O)Nc1cnc(C)c(-c2cc3c(cn2)CN(c2c(F)c(OC)cc(OC)c2F)C(=O)C32CC2)c1 [Example 7, N-(5-(2′-(2,6-difluoro-3,5-dimethoxyphenyl)-3′-oxo-2′,3′-dihydro-1′H-spiro[cyclopropane-1,4′-[2,7]naphthyridine]-6′-yl)-6-methylpyridin-3-yl)acrylamide] | >100 | >100 | >100 | < 10 | > 200 | > 200 | > 200 | < 10 |  | > 200 |  |  |  | >100 | >100 | >100 | > 200 | > 200
6 | C=CC(=O)Nc1cnn(C[C@H]2CCOC2)c1-c1cc2c(cn1)CN(c1c(F)c(OC)cc(OC)c1F)C(=O)C21CC1 [Example 29, (R)-N-(5-(2′-(2,6-difluoro-3,5-dimethoxyphenyl)-3′-oxo-2′,3′-dihydro-1′H-spiro[cyclopropane-1,4′-[2,7]naphthyridine]-6′-yl)-1-((tetrahydrofuran-3-yl)methyl)-1H-pyrazol-4-yl)acrylamide] | >100 | >100 | >100 | < 10 | > 200 | > 200 | > 200 |  |  |  |  |  |  |  |  |  |  | 
7 | C=CC(=O)N1CCCC(c2cc3c(cn2)CN(c2c(F)c(OC)cc(OC)c2F)C(=O)C32CC2)C1 (stereo not shown) [Example 8, 6′-(1-acryloylpiperidin-3-yl)-2′-(2,6-difluoro-3,5-dimethoxyphenyl)-1′H-spiro[cyclopropane-1,4′-[2,7]naphthyridin]-3′(2′H)-one] | >10 | >2 | >2 |  | > 200 | > 200 | > 200 | > 200 |  | > 200 |  |  | 30 to 200 | >5 | >1 | >1 | > 200 | > 200
8 | C=CC(=O)Nc1cc(CN2CCOCC2)cc(-c2cc3c(cn2)CN(c2c(F)c(OC)cc(OC)c2F)C(=O)C32CC2)c1 [Example 11, N-[3-[2′-(2,6-difluoro-3,5-dimethoxyphenyl)-3′-oxo-2′,3′-dihydro-1′H-spiro[cyclopropane-1,4′-[2,7]naphthyridin]-6′-yl]-5-(morpholin-4-ylmethyl)phenyl]acrylamide] | >100 | >100 | >100 | < 10 | > 200 | > 200 | > 200 | < 10 |  | > 200 |  |  |  | >100 | >100 | >100 | > 200 | > 200
9 | C=CC(=O)Nc1cn[nH]c1-c1cc2c(cn1)CN(c1c(F)c(OC)cc(OC)c1F)C(=O)C21CC1 [Example 14, N-(5-(2′-(2,6-difluoro-3,5-dimethoxyphenyl)-3′-oxo-2′,3′-dihydro-1′H-spiro[cyclopropane-1,4′-[2,7]naphthyridine]-6′-yl)-1H-pyrazol-4-yl)acrylamide] | >100 | >100 | >100 | < 10 | > 200 | > 200 | > 200 |  |  |  |  |  |  |  |  |  |  | 
10 | C=CC(=O)Nc1cc(-c2cc3c(cn2)CN(c2c(F)c(OC)cc(OC)c2F)C(=O)C32CC2)c(C)cc1F [Example 6, N-(5-(2′-(2,6-difluoro-3,5-dimethoxyphenyl)-3′-oxo-2′,3′-dihydro-1′H-spiro[cyclopropane-1,4′-[2,7]naphthyridine]-6′-yl)-2-fluoro-4-methylphenyl)acrylamide] | >100 | >100 | >100 | < 10 | > 200 | > 200 | > 200 | < 10 |  | > 200 |  |  |  | >100 | >100 | >100 | > 200 | > 200
11 | C=CC(=O)Nc1cnn(CC(=O)NC)c1-c1cc2c(cn1)CN(c1c(F)c(OC)cc(OC)c1F)C(=O)C21CC1 [Example 20, N-(5-(2′-(2,6-difluoro-3,5-dimethoxyphenyl)-3′-oxo-2′,3′-dihydro-1′H-spiro[cyclopropane-l,4′[2,7]naphthyridine]-6′-yl)-1-(2-(methylamino)-2-oxoethyl)-1H-pyrazol-4-yl)acrylamide] | >50 | >100 | >100 |  |  |  |  |  |  |  |  |  |  |  |  |  |  | 
12 | C=CC(=O)Nc1cc(-c2cc3c(cn2)CN(c2c(F)c(OC)cc(OC)c2F)C(=O)C32CC2)ccc1CO [Example 13, N-(5-(2′-(2,6-difluoro-3,5-dimethoxyphenyl)-3′-oxo-2′,3′-dihydro-1′H-spiro[cyclopropane-1,4′-[2,7]naphthyridine]-6′-yl)-2-(hydroxymethyl)phenyl)acrylamide] |  |  |  | < 10 |  |  |  | < 10 | 30 to 200 | 30 to 200 | 30 to 200 | 30 to 200 |  |  |  |  |  | 
13 | C=CC(=O)Nc1cccc(-c2cc3c(cn2)CN(c2c(F)c(OC)cc(OC)c2F)C(=O)C32CC2)c1 [Example 1, N-{3-[2′-(2,6-difluoro-3,5-dimethoxyphenyl)-3′-oxo-2′,3′-dihydro-1′H-spiro[cyclopropane-1,4′-[2,7]naphthyridin]-6′-yl]phenyl}acrylamide] |  |  |  | < 10 |  |  |  | < 10 |  |  | 10 to 30 | 10 to 30 |  |  |  |  |  | 
14 | C=CC(=O)N(C)c1cccc(-c2cc3c(cn2)CN(c2c(F)c(OC)cc(OC)c2F)C(=O)C32CC2)c1 [Example 9, N-(3-(2′-(2,6-difluoro-3,5-dimethoxyphenyl)-3′-oxo-2′,3′-dihydro-1′H-spiro[cyclopropane-1,4′-[2,7]naphthyridine]-6′-yl)phenyl)-N-methylacrylamide] |  |  |  | < 10 |  |  |  | < 10 | 30 to 200 | 30 to 200 | 10 to 30 | 10 to 30 |  |  |  |  |  | 
15 | C=CC(=O)Nc1cc(-c2cc3c(cn2)CN(c2c(F)c(OC)cc(OC)c2F)C(=O)C32CC2)ccn1 [Example 4, N-(4-(2′-(2,6-difluoro-3,5-dimethoxyphenyl)-3′-oxo-2′,3′-dihydro-1′H-spiro[cyclopropane-1,4′-[2,7]naphthyridine]-6′-yl)pyridin-2-yl)acrylamide] |  |  |  |  |  |  |  |  |  |  | 10 to 30 | 10 to 30 |  |  |  |  |  | 
